From US20070208052A1, “Aryloxy and arylalkyleneoxy substituted thiazoloquinolines and thiazolonaphthyridines” (priority 2004, published 2007)

In the case of CCCc1nc2c(N)nc3cc(OCc4ccccc4)ccc3c2s1 [Example 1, 7-Benzyloxy-2-propylthiazolo[4,5-c]quinolin-4-amine], the melting point is reported as 175 to 178 °C.

Work on CCCc1nc2c(N)nc3cc(OCc4ccc(F)cc4)ccc3c2s1 [Example 2, 7-(4-Fluorobenzyloxy)-2-propylthiazolo[4,5-c]quinolin-4-amine] yielded a melting point of 189 to 192 °C.

With CCCc1nc2c(N)nc3cc(OCCc4ccc(F)cc4)ccc3c2s1 [Example 3, 7-[2-(4-Fluorophenyl)ethoxy]-2-propylthiazolo[4,5-c]quinolin-4-amine] the melting point was 145 to 148 °C.

With CCCc1nc2c(N)nc3cc(OCCOCc4ccccc4)ccc3c2s1 [Example 4, 7-[2-(Benzyloxy)ethoxy]-2-propylthiazolo[4,5-c]quinolin-4-amine] the melting point was 142 to 145 °C.

With CCCc1nc2c(N)nc3cc(OCc4ccoc4)ccc3c2s1 [Example 5, 7-(Furan-3-ylmethyloxy)-2-propylthiazolo[4,5-c]quinolin-4-amine] the melting point was 170 to 171 °C.

Work on CCc1nc2c(N)nc3cc(OCc4ccccc4)ccc3c2s1 [Example 29, 7-Benzyloxy-2-ethylthiazolo[4,5-c]quinolin-4-amine] yielded a melting point of 208 to 209 °C.

In the case of CCc1nc2c(N)nc3cc(OCCCc4cccnc4)ccc3c2s1 [Example 30, 2-Ethyl-7-[3-(pyridin-3-yl)propoxy]thiazolo[4,5-c]quinolin-4-amine], the melting point is reported as 172 to 173 °C.

With CCCc1nc2c(N)nc3cc(OCc4cscn4)ccc3c2s1 [Example 31, 2-Propyl-7-[(thiazol-4-yl)methoxy]thiazolo[4,5-c]quinolin-4-amine] the melting point was 218 to 220 °C.

CCCc1nc2c(N)nc3cc(OCc4cccnc4)ccc3c2s1 [Example 32, 2-Propyl-7-[(pyridin-3-yl)methoxy]thiazolo[4,5-c]quinolin-4-amine] gave a melting point of 167 to 169 °C.

CCCc1nc2c(N)nc3cc(OCCn4cccc4)ccc3c2s1 [Example 33, 2-Propyl-7-[2-(pyrrol-1-yl)ethoxy]thiazolo[4,5-c]quinolin-4-amine] gave a melting point of 158 to 160 °C.

In the case of CCCc1nc2c(N)nc3cc(OCCCn4cccc4)ccc3c2s1 [Example 34, 2-Propyl-7-[3-(pyrrol-1-yl)propoxy]thiazolo[4,5-c]quinolin-4-amine], the melting point is reported as 152 to 154 °C.

For CCCc1nc2c(N)nc3cc(OCc4c(C)noc4C)ccc3c2s1 [Example 35, 7-[(3,5-Dimethylisoxazol-4-yl)methoxy]-2-propylthiazolo[4,5-c]quinolin-4-amine], the melting point was 178 to 180 °C.

For CCc1nc2c(N)nc3cc(OCc4ccc(C(F)(F)F)o4)ccc3c2s1 [Example 36, 2-Ethyl-7-{[5-(trifluoromethyl)furan-2-yl]methoxy} thiazolo[4,5-c]quinolin-4-amine], the melting point was 152 to 154 °C.

CCc1nc2c(N)nc3cc(OCc4ccc(S(=O)(=O)NCCc5cc6ccccc6[nH]5)cc4)ccc3c2s1 [Example 37, 4-{[(4-Amino-2-ethylthiazolo[4,5-c]quinolin-7-yl)oxy]methyl}-N-[2-(1H-indol-2-yl)ethyl]benzenesulfonamide] gave a melting point of 100 to 101 °C.

For CCc1nc2c(N)nc3cc(OCc4cccc(Cl)n4)ccc3c2s1 [Example 38, 7-[(6-Chloropyridin-2-yl)methoxy]-2-ethylthiazolo[4,5-c]quinolin-4-amine], the melting point was 229 to 230 °C.

With CCc1nc2c(N)nc3cc(OCCc4c(C)n[nH]c4C)ccc3c2s1 [Example 39, 7-[2-(3,5-Dimethyl-1H-pyrazol-4-yl)ethoxy]-2-ethylthiazolo[4,5-c]quinolin-4-amine] the melting point was 195 to 197 °C.

CCc1nc2c(N)nc3cc(OCCCn4cc(CO)nn4)ccc3c2s1 [Example 40, (1-{[3-(4-Amino-2-ethylthiazolo[4,5-c]quinolin-7-yl)oxy]propyl}-1H-[1,2,3]triazol-4-yl)methanol] showed a melting point of 194 to 197 °C.

CCc1nc2c(N)nc3cc(OCc4nc5ccccc5s4)ccc3c2s1 [Example 41, 7-[(1,3-Benzothiazol-2-yl)methoxy]-2-ethylthiazolo[4,5-c]quinolin-4-amine] showed a melting point of 211 to 212 °C.

In the case of CCc1nc2c(N)nc3cc(OCc4ccc(C(=O)OC)o4)ccc3c2s1 [Example 42, Methyl 5-{[(4-amino-2-ethylthiazolo[4,5-c]quinolin-7-yl)oxy]methyl}-2-furoate], the melting point is reported as 184 to 186 °C.

CCc1nc2c(N)nc3cc(OCc4cccc(CO)n4)ccc3c2s1 [Example 43] showed a melting point of 186 to 187 °C.

For CCc1nc2c(N)nc3cc(Oc4ccc(C(=O)OC)cn4)ccc3c2s1 [Example 44, Methyl 6-[(4-amino-2-ethylthiazolo[4,5-c]quinolin-7-yl)oxy]nicotinate], the melting point was 213 to 214 °C.

For CCc1nc2c(N)nc3cc(OCCc4c[nH]c5ccccc45)ccc3c2s1 [Example 45, 2-ethyl-7-[2-(1H-indol-3-yl)ethoxy]thiazolo[4,5-c]quinolin-4-amine], the melting point was 218 to 220 °C.
